Like-named read-outs stand apart in the source and are kept apart here.
Tests used:
[1] = target: T1, EGFR T790M/L858R Ba/F3 cell line (Homo sapiens, UniProt P00533, T790M/L858R, cells depend on it); assay: Ba/F3 cell proliferation (MTS assay), EGFR T790M/L858R; format: cell-based, murine
T1 construct: The constructs were shuttled into the retroviral vector JP1540 using the BD Creator™ System (BD Biosciences)
Method: The EGFR mutant L858R, Del E746_A750, L858R/T790M, DelE746_A750/T790M, L858R/T790M/C797S and Del/T790M/C797S Ba/F3 cells were previously described (Zhou e al., Nature 462, (2009), 1070-1074). All cell lines were maintained in RPMI 1640 (Cellgro; Mediatech Inc., Hemdon, Calif.) supplemented with 10% FBS 100 units/mL penicillin, 100 units/mL streptomycin, and 2 mM glutamine. L858R cells were maintained in ACL-4 media (Invitrogen, Carlsbad, Calif.) supplemented with 5% FBS, 100 units/mL penicillin, 100 units/mL streptonycin, and 2 mM glutamine. The EGFR I941R mutation was introduced via site directed mutagenesis using the Quick Change Site-Directed Mutagenesis kit (Stratagene; La Jolla, Calif.) according to the manufacturer's instructions. All constructs were confirmed by DNA sequencing. The constructs were shuttled into the retroviral vector JP1540 using the BD Creator™ System (BD Biosciences). Ba/F3 cells were infected with retrovirus and according to standard protocols, as described previously (Zhou 2009). Stable clones were obtained by selection in puromycin (2 μg/ml).
Growth and inhibition of growth was assessed by MTS assay and was performed according to previously established methods (Zhou 2009). The MTS assay is a colorimetric method for determining the number of viable cells that is based on the bioreduction of MTS by cells to a formazan product that is soluble in cell culture medium and can be detected spectrophotometrically. […] All experimental points were set up in six wells and all experiments were repeated at least three times. […] The curves were fitted using a non-linear regression model with a sigmoidal dose response.

[2] = target: T2, recombinant EGFR T790M/L858R kinase (Homo sapiens, UniProt P00533, L858R/T790M); assay: HTRF-based EGFR biochemical assay
T2 construct: Constructs spanning residues 696-1022 of the human EGFR; GST (cleaved yes); made in house; host or cells: Sf9 insect cells
Method: Constructs spanning residues 696-1022 of the human EGFR (including wild type and L858R, L858R/T790M, T790M, and T790M/V948R mutant sequences) were prepared in a GST-fusion format using the pTriEX system (Novagen) for expression in Sf9 insect cells essentially as described (Yun et al., PNAS 105, 2070-2075 (2008); Yun et al., Cancer Cell 11, 217-227 (2007)). EGFR kinase proteins were purified by glutathione-affinity chromatography followed by size-exclusion chromatography after cleavage with TEV or thrombin to remove the GST fusion partner following established procedures. (Yun 2008; Yun 2007).
EGFR biochemical assays were carried out using a homogeneous time-resolved fluorescence (HTRF) assay as described previously. The reaction mixtures contained 1 μM biotin-Lck-peptide substrate, wild type or mutant EGFR enzyme in reaction buffer (50 mM HEPES pH 7. 1, 10 mM MgCl2, 0.01% BSA, 1 mM TCEP and 0.1 mM Na3VO4) at a final volume of 10 μL. Enzyme concentrations were adjusted to accommodate varying kinase activity and ATP concentrations (0.2-0.4 nM L858R/T790M; or 2-4 nM L858R, or 2-4 nM T790M, or nM WT). All reactions were carried out at room temperature in white ProxiPlate™ 384-well Plus plates (PerkinElmer) and were quenched with 5 μL of 0.2 M EDTA at 60 min. Five μL per well of the detection reagent containing 2.5 ng PT66K (Cis-bio) and 0.05 μg SAXL (Prozyme) were added, and the plates were then incubated at room temperature for 1 hour and read with an EnVision plate reader.

[3] = absence of cetuximab, read-out: Ba/F3 cellular activity (EC50) T790M/L858R
[4] = read-out: Ba/F3 cellular activity (EC50) T790M/L858R + Cetuximab, presence of 1 μg/mL cetuximab

T2 sequence (P00533 696-1022 T790M/L858R): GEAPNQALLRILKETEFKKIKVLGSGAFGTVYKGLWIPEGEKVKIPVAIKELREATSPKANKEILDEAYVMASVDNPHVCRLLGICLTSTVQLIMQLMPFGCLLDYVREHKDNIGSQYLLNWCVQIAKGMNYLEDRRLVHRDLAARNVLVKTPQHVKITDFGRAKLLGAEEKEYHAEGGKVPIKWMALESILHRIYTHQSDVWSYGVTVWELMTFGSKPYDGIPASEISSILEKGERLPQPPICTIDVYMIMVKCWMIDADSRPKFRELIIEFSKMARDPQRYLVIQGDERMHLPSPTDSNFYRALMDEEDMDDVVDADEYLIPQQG
T1 sequence (P00533 whole entry T790M/L858R): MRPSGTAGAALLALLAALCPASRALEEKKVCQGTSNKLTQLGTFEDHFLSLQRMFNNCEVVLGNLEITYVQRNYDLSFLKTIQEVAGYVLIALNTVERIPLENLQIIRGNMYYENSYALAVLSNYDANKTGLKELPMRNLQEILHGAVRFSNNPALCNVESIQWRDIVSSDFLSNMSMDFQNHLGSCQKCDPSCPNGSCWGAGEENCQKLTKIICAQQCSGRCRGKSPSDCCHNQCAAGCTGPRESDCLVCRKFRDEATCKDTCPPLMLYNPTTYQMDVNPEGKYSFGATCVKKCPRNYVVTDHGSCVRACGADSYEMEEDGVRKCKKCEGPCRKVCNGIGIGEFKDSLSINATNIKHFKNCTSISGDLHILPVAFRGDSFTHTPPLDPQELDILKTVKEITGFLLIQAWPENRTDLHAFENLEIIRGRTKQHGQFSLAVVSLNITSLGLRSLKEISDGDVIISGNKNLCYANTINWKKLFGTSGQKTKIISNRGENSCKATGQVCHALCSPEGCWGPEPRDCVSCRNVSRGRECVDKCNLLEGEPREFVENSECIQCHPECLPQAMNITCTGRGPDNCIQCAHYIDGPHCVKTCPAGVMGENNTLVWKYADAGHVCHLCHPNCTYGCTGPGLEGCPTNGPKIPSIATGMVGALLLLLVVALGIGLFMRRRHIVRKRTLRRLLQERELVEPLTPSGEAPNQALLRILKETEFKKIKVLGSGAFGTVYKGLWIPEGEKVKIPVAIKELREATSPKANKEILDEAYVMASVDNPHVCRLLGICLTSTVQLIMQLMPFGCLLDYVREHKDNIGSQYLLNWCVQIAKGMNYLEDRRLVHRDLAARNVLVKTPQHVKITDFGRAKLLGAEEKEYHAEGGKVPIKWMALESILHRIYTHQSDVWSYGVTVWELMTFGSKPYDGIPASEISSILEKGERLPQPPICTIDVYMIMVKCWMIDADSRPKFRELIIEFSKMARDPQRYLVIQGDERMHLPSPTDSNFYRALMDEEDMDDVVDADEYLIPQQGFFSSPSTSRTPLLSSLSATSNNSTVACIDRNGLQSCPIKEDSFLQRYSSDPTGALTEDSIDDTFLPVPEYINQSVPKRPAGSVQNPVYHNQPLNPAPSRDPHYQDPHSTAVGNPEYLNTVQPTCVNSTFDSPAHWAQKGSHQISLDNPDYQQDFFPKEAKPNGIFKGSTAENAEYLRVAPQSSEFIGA

| EC50 [1, 3] [nM] | EC50 [1, 4] [nM] | IC50 [2] [nM] | Structure (SMILES) |
| --- | --- | --- | --- |
| ≥ 750 | 500 to 750 | ≥ 750 | C=CC(=O)Nc1ccc2c(c1)N(Cc1ccccc1)C(=O)c1cc(-c3ccc4[nH]ccc4c3)ccc1N2 [I-1] |
| < 250 | < 250 | ≥ 750 | O=C(CCl)Nc1ccc2c(c1)N(Cc1ccccc1)C(=O)c1cc(-c3ccc4[nH]ccc4c3)ccc1N2 [I-2] |
| ≥ 750 | ≥ 750 | ≥ 750 | C=CC(=O)Nc1ccc2c(c1)N(Cc1ccccc1)C(=O)c1cc(-c3ccc(N4CCNCC4)cc3)ccc1N2 [I-3, N-(10-Benzyl-11-oxo-2-(4-(piperazin-1-yl)phenyl)-10,11-dihydro-5H-dibenzo[b,e][1,4]diazepin-8-yl)acrylamide] |
| ≥ 750 | 250 to 500 |  | O=C1c2cc(Br)ccc2Nc2ccc(F)cc2N1Cc1ccccc1 [I-a, 10-Benzyl-2-bromo-8-fluoro-5,10-dihydro-11H-dibenzo[b,e][1,4]diazepin-11-one] |

Source: patent US20200377477A1, “DEGRADERS OF EGFR AND METHODS OF USE THEREOF” (DANA-FARBER CANCER INSTITUTE, INC., priority 2018, published 2020)
